Experimental data as given in ChEMBL document CHEMBL5537165, “Hepatitis C: The Story of a Long Journey through First, Second, and Third Generation NS3/4A Peptidomimetic Inhibitors. What Did We Learn?” (J Med Chem, 2024).
*1 amine or outer side, *2 acyl side, *3 side chain or, on linkers, in order; H or OH if unused. Where a SMILES comes first, the peptide text is derived from it. Side-chain parts run from the residue outwards. [ ]: non-standard residue; d: D form. The star is where a group is joined. Tetrahydroisoquinolin(2-yl) = c1ccc2c(c1)CCN(*)C2; Pyrazinecarbonyl = O=C(c1cnccn1)*; Hyp = O=C(O)[C@@H]1C[C@@H](O)CN1; Abu = CC[C@H](N)C(=O)O; CO = O=C([*:1])[*:2]; Bn = c1ccc(C*)cc1

Assays:
[1] = Half life in Beagle dog at 5 mg/kg, po by LC-MS/MS analysis; assay type: ADME, organism-based, Canis lupus familiaris; conditions: in vivo
[2] = Clearance in Beagle dog plasma at 0.5 mg/kg, iv and measured upto 24 hrs by LC-MS/MS analysis; assay type: ADME, organism-based, Canis lupus familiaris
[3] = Volume of distribution at steady state in Sprague-Dawley rat at 1 mg/kg, iv; assay type: ADME, organism-based; conditions: in vivo, read-out: Vdss
[4] = target: T1, Non-structural protein 4b (Hepacivirus hominis, UniProt F5B4I0); experiment: Binding affinity to Hepatitis C virus genotype 3a NS4B assessed as inhibition constant
T1 sequence (F5B4I0 whole entry): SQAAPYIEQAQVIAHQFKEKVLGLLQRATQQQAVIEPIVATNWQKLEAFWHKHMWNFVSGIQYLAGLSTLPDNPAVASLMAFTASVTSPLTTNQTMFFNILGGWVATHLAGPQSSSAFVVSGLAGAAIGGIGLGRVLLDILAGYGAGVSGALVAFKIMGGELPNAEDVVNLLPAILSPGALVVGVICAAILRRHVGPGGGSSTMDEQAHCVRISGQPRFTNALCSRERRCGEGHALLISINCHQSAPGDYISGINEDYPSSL

[5] = Volume of distribution at steady state in Beagle dog at 0.5 mg/kg, iv and measured upto 24 hrs by LC-MS/MS analysis; assay type: ADME, organism-based, Canis lupus familiaris; conditions: in vivo, read-out: Vdss
[6] = Cmax in Sprague-Dawley rat at 3 mg/kg, po and measured upto 24 hrs by LC-MS/MS analysis; assay type: ADME, organism-based; conditions: in vivo
[7] = Half life in Sprague-Dawley rat at 5 mg/kg, po by LC-MS/MS analysis; assay type: ADME, organism-based; conditions: in vivo
[8] = Oral bioavailability in Sprague-Dawley rat; assay type: ADME, organism-based; conditions: in vivo
[9] = AUC in Sprague-Dawley rat plasma […] at 10 mg/kg, po administered via gavage by LC-MS/MS analysis; assay type: ADME, organism-based; conditions: in vivo
[10] = AUC (0 to infinity) in liver to plasma of Sprague-Dawley rat at 3 mg/kg,po; assay type: ADME, organism-based; conditions: in vivo
[11] = Oral bioavailability in Beagle dog at 2 mg/kg; assay type: ADME, organism-based, Canis lupus familiaris; conditions: in vivo
[12] = Cmax in Beagle dog at 3 mg/kg, po and measured upto 24 hrs by LC-MS/MS analysis; assay type: ADME, organism-based, Canis lupus familiaris; conditions: in vivo
[13] = target: T1, Non-structural protein 4b; experiment: Binding affinity to Hepatitis C virus genotype 1a NS4B assessed as inhibition constant
[14] = Clearance in Sprague-Dawley rat at 2 mg/kg, iv by LC-MS/MS analysis; assay type: ADME, organism-based; conditions: in vivo
[15] = target: T1, Non-structural protein 4b; experiment: Inhibition of Hepatitis C virus genotype 1b NS4B
[16] = target: T1, Non-structural protein 4b; experiment: Inhibition of Hepatitis C virus genotype 3a NS4B
[17] = target: T1, Non-structural protein 4b; experiment: Binding affinity to Hepatitis C virus genotype 1 NS4B assessed as inhibition constant
[18] = target: Replicase polyprotein 1ab (Severe acute respiratory syndrome coronavirus 2, UniProt P0DTD1); experiment: Inhibition of SARS-CoV-2 3CL protease by FRET assay
SARS-CoV-2 [19] = experiment: Antiviral activity against SARS-CoV-2 infected in African green monkey Vero E6 cells assessed as reduction in viral replication measured after 48 hrs by Hoechst 33342 staining based analysis; assay type: functional, organism-based; conditions: Severe acute respiratory syndrome coronavirus 2, Vero C1008, 48 h
[20] = Inhibition of Hepatitis C virus NS3 protease; design: species or system Hepacivirus hominis
SARS-CoV-2 [21] = experiment: Antiviral activity against SARS-CoV-2 infected in human Huh-7 cells assessed as reduction in viral growth; assay type: functional, organism-based; conditions: Severe acute respiratory syndrome coronavirus 2, Huh-7
[22] = target: T1, Non-structural protein 4b; experiment: Binding affinity to full length Hepatitis C virus genotype 1b NS4B expressed in Escherichia coli assessed as inhibition constant
[23] = target: T1, Non-structural protein 4b; experiment: Inhibition of Hepatitis C virus genotype 1a NS4B

**Q.** With `COc1ccc2nc3c(nc2c1)O[C@@H]1CC2C(=O)N[C@]4(C(=O)NS(=O)(=O)C5(C)CC5)C[C@@H]4/C=C/CCCCC[C@H](NC(=O)O[C@@H]4CCC[C@H]4CCCCC3)C(=O)N2C1` (some centres not stated) as the molecule, how does the half-life [1] read?
**A.** 2.3 h

**Q.** What about the clearance [2] of the same molecule?
**A.** 4.4 mL/min/kg

**Q.** And the Vd [3]?
**A.** 4 L/kg

**Q.** And the Ki [4]?
**A.** 0.26 nM

**Q.** And the Vd [5]?
**A.** 0.5 L/kg

**Q.** And the Cmax [6]?
**A.** 70 nM

**Q.** What about the half-life [7] of the same molecule?
**A.** 3.8 h

**Q.** What about the bioavailability [8] of the same molecule?
**A.** 8%

**Q.** What about the AUC [9] of the same molecule?
**A.** 20 µM·h

**Q.** And the AUC [10]?
**A.** 2470 µM·h

**Q.** What about the bioavailability [11] of the same molecule?
**A.** 12%

**Q.** And the Cmax [12]?
**A.** 350 nM

**Q.** And the Ki [13]?
**A.** 0.005 nM

**Q.** And the clearance [14]?
**A.** 33 mL/min/kg

**Q.** With `C=C[C@@H]1C[C@]1(NC(=O)[C@@H]1C[C@@H](Oc2cc3ccccc3cn2)CN1C(=O)[C@@H](NC(=O)OCC(C)C)C(C)(C)C)C(=O)NS(=O)(=O)C1(C)CC1` as the molecule, how does the IC50 [15] read?
**A.** 2.7 nM

**Q.** And the IC50 [16]?
**A.** 430 nM

**Q.** With `CCC[C@H](NC(=O)[C@@H]1C[C@@H](OC(=O)N2CCc3ccccc3C2)CN1C(=O)[C@@H](NC(=O)[C@@H](NC(=O)c1cnccn1)C(C)C)C(C)C)C(=O)C(=O)NC1CC1` as the molecule, how does the Ki [17] read?
**A.** 2300 nM

**Q.** For `C=C[C@@H]1C[C@]1(NC(=O)[C@@H]1C[C@@H](Oc2cc(-c3csc(NC(C)C)n3)nc3c(C(C)C)c(OC)ccc23)CN1C(=O)[C@@H](NC(=O)OC1CCCC1)C(C)(C)C)C(=O)O`, which IC50 [18] is on record?
**A.** 14 nM

**Q.** And the EC50 (SARS-CoV-2 [19])?
**A.** 45 nM

**Q.** For `C=C[C@@H]1C[C@]1(NC(=O)[C@@H]1C[C@@H](Oc2cc(-c3ccccc3)nc3cc(OC)ccc23)CN1C(=O)[C@H](CCCCC)NC(=O)OC(C)(C)C)C(=O)O`, which IC50 [20] is on record?
**A.** 400 nM

**Q.** What does the source list for `C=C[C@@H]1C[C@]1(NC(=O)[C@@H]1C[C@@H](Oc2cc(-c3csc(C(=O)CC)n3)nc3c(C)c(OC)ccc23)CN1C(=O)[C@@H](NC(=O)OC1CCCC1)C(C)(C)C)C(=O)O`?
**A.** IC50 [18]: 10 nM; EC50 (SARS-CoV-2 [19]): 12 nM

**Q.** Which IC50 [18] does the source give for `COc1ccc2nc3c4c(c2c1)CC[C@]1(C[C@H]2C(=O)N[C@]5(C(=O)NS(=O)(=O)C6(C)CC6)C[C@H]5/C=C/CCCCC[C@H](NC(=O)O[C@@H]5CCC[C@H]5CCCCC3)C(=O)N2C1)O4` here?
**A.** < 0.01 nM

**Q.** Which IC50 [16] does the source give for `COc1ccc2nc(C(F)(F)F)c3c(c2c1)CC[C@]1(C[C@H]2C(=O)N[C@]4(C(=O)NS(=O)(=O)C5(C)CC5)C[C@H]4/C=C/CCCCCC(NC(=O)OC(C)(C)C)C(=O)N2C1)O3` (some centres not stated) here?
**A.** 0.47 nM

**Q.** With `CCC[C@H](NC(=O)[C@@H]1C[C@@H](OCc2cccc3ccccc23)CN1C(=O)[C@@H](NC(=O)[C@@H](NC(=O)[C@@H](CC(=O)O)NC(=O)[C@H](CC(=O)O)NC(C)=O)C1CCCCC1)C(C)C)C(=O)O` as the molecule, how does the IC50 [20] read?
**A.** 27 nM

**Q.** With `CC[C@H](C)[C@H](NC(=O)[C@@H](CC(=O)O)NC(=O)[C@H](CC(=O)O)NC(C)=O)C(=O)N[C@H](C(=O)N1CCC[C@H]1C(=O)N[C@@H](CS)C(=O)O)C(C)C` (Ac-D[dD]IVPC-OH) as the molecule, how does the IC50 [20] read?
**A.** 4000 nM

**Q.** Which Ki [17] does the source give for `CC[C@@H](C=O)NC(=O)[C@@H]1C[C@@H](OCc2ccccc2)CN1C(=O)[C@@H](NC(=O)[C@@H](NC(=O)[C@H](CC(=O)O)NC(=O)[C@H](CCC(=O)O)NC(C)=O)C(C)C)C(C)C` (Ac-EDVV[Hyp](Bn)[Abu]-aldehyde) here?
**A.** 890 nM

**Q.** With `CC[C@@H](C=O)NC(=O)[C@@H]1C[C@@H](OCc2ccccc2)CN1C(=O)[C@@H](NC(=O)[C@@H](NC(=O)c1cnccn1)C(C)C)C(C)C` (Pyrazinecarbonyl-VV[Hyp](Bn)[Abu]-aldehyde) as the molecule, how does the Ki [17] read?
**A.** 12000 nM

**Q.** Which Ki [17] does the source give for `CC[C@@H](C=O)NC(=O)[C@@H]1C[C@@H](OC(=O)N2CCc3ccccc3C2)CN1C(=O)[C@@H](NC(=O)[C@@H](NC(=O)c1cnccn1)C(C)C)C(C)C` (Pyrazinecarbonyl-VV[Hyp]([CO-Tetrahydroisoquinolin(2-yl)])[Abu]-aldehyde) here?
**A.** 890 nM

**Q.** With `CC(C)(C)OC(=O)N[C@H]1CCCCC/C=C\[C@@H]2C[C@@]2(C(=O)NS(=O)(=O)C2CC2)NC(=O)[C@@H]2C[C@@H](OC(=O)N3Cc4cccc(F)c4C3)CN2C1=O` [DANOPREVIR] as the molecule, how does the Ki [13] read?
**A.** 1 nM

**Q.** Which EC50 (SARS-CoV-2 [21]) does the source give for `COc1ccc2c(O[C@@H]3C[C@H]4C(=O)N[C@]5(P(=O)(O)Cc6c(F)cccc6F)C[C@H]5CCCCCCC[C@H](NC(=O)OC5CCCC5)C(=O)N4C3)cc(-c3csc(NC(C)C)n3)nc2c1Cl` [GS-9256] here?
**A.** 20 nM

**Q.** And the Ki [22]?
**A.** 0.089 nM

**Q.** For `C=C[C@@H]1C[C@]1(NC(=O)[C@@H]1C[C@@H]2CN1C(=O)[C@H](C1CCCC1)NC(=O)O[C@@H]1CCC[C@H]1CCCCCn1c(nc3cc(OC)ccc3c1=O)O2)C(=O)NS(=O)(=O)C1(C)CC1` [MK-2748], which half-life [1] is on record?
**A.** 2.5 h

**Q.** What about the clearance [2] of the same molecule?
**A.** 1 mL/min/kg

**Q.** And the Vd [3]?
**A.** 5 L/kg

**Q.** What about the Ki [4] of the same molecule?
**A.** 1.2 nM

**Q.** What about the Vd [5] of the same molecule?
**A.** 0.12 L/kg

**Q.** And the Cmax [6]?
**A.** 490 nM

**Q.** And the half-life [7]?
**A.** 1.9 h

**Q.** And the bioavailability [8]?
**A.** 40%

**Q.** What about the AUC [9] of the same molecule?
**A.** 28.9 µM·h

**Q.** And the AUC [10]?
**A.** 2420 µM·h

**Q.** What about the bioavailability [11] of the same molecule?
**A.** 27%

**Q.** What about the Cmax [12] of the same molecule?
**A.** 4400 nM

**Q.** What about the IC50 [23] of the same molecule?
**A.** 0.009 nM

**Q.** And the Ki [13]?
**A.** 0.009 nM

**Q.** What about the clearance [14] of the same molecule?
**A.** 88 mL/min/kg
